Measurements: patent US20250084095A1, “Aminopyrimidine Derivatives as Cyclin-Dependent Kinase Inhibitors” (Accutar Biotechnology Inc., priority 2023, published 2025)

How the values were obtained:
[1] = test system: Phospho-Rb (Ser807/811) in MCF7 cells; experiment: Phospho-Rb expression inhibition in MCF7 cells quantified by in cell Western; assay type: cell-based, human; details: Homo sapiens, MCF7, 24 h, 24 hours, in cell Western, read-out: MCF7 pRb IC50
In short: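 MCF7 cells were seeded at 20,000/well, grown overnight, then treated 24 h at 37 °C with compound dilutions (0.1% DMSO from 1000× stocks). Fixed cells were co-stained for phospho-Rb Ser807/811 and total Rb. Near-infrared dual-channel in-cell Western imaging was the read-out.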

[2] = test system: Phospho-Rb (Ser807/811) in SW1573-CDK6 KO cells; experiment: Phospho-Rb expression inhibition in SW1573-CDK6 KO cells quantified by in cell Western; assay type: cell-based; details: Homo sapiens, 24 hours, read-out: SW1573 CDK6 KO pRb IC50
Method: (§1) Parental SW1573 cells were obtained from the American Type Culture Collection (ATCC). CDK4 or CDK6 gene in […] cells was knocked out using the CRISPR-Cas9 technology. First, gRNA complex of CDK4 or CDK6 was prepared with Alt-R CRISPR-Cas9 tracrRNA and crRNA CDK4 (5′-[…]-3′ (SEQ ID NO: 4)) or CDK6 (5′-[…]-3′ (SEQ ID NO. 5)) (IDT-Integrated DNA Technologies), and then ribonucleoprotein (RNP) complex of CDK4 or CDK6 was prepared with respective gRNA complex and Alt-R S.p. Cas9 Nuclease V3 (IDT-Integrated DNA Technologies). Next, 5×10^4/10 μL SWJ1573 cells were electroporated with the CDK4 or CDK6 RNP complex and Alt-R Cas9 Electroporation Enhancer using Neon Transfection System (Thermo Fisher). Cells were then plated in a 96-well plate to select single clones for validation of CDK4 or CDK6 knockout by western blot analysis.
(§2) MCF7 cells were obtained from American Type Culture Collection (ATCC, HTB-22). SW1573-CDK6 KO and SW1573-CDK4 KO cells were generated by the CRISPR-Cas9 technology. All cells were plated in 96-well plates (VWR #10062-900, or Corning #3904) in 90 uL culture medium at a density of 20,000 cells/well in the respective growth medium containing 10% FBS and 1% Penicillin Streptomycin, and then incubated at 37° C. overnight. The following day, the test compound was administered to the cells by using 1000× compound stock solution prepared in DMSO at various concentrations. 1000× compound stock solution was first diluted in culturing medium to 10×, then 10 uL compound medium was added to each well in the cell plates. After administration of the compound, the cells were then incubated at 37° C. for 24 hours. Upon completion, the cells were washed with PBS briefly. 150 uL/well of 4% formaldehyde was added and the plates were incubated at room temperature for 20 mins. The cells were washed with PBS briefly, and permeabilized with 150 uL/well of ice cold 100% methanol for 10 mins. The cells were washed with PBS briefly and blocked with 100 uL/well LI-COR blocking buffer for 1 hr at room temperature with gentle shaking. The cells were incubated overnight at 4° C. with 50 uL primary antibody rabbit anti-Phospho-Rb (Ser807/811) (1: 500, Cell Signaling, #8516) and anti-Rb (1:200, Santa Cruz, sc-73598) diluted in Intercept Blocking Buffer (LI-COR, #927-60001) containing 0.1% Tween 20. The next day, the cells were washed with 200 uL PBS containing 0.1% Tween 20, 5×5 mins at room temperature with gentle shaking, and incubated with 50 uL secondary antibody, IRDye® 800CW Goat anti-Rabbit IgG (1:1000, LI-COR, #926-32211) and IRDye®680RD Goat anti-Mouse IgG (1:1000, LI-COR, #926-68070), in LI-COR blocking buffer with 0.2% Tween 20 for 1 hr at room temperature with gentle shaking. The cells were washed with 200 uL PBS containing 0.1% Tween 20, 5×5 mins at room temperature with gentle shaking. The cells were washed with PBS for 5 mins. 100 uL fresh PBS was added to each well and the plates were imaged on a LI-COR Odyssey CLX plate reader.

[3] = test system: Phospho-Rb (Ser807/811) in SW1573-CDK4 KO cells; experiment: Phospho-Rb expression inhibition in SW1573-CDK4 KO cells quantified by in cell Western; assay type: cell-based; details: Homo sapiens, 24 hours, read-out: SW1573 CDK4 KO pRb IC50
Method: as §1, §2

22RV1 cells = experiment: Cell growth inhibition of 22RV1 cells (CellTiter-Glo); assay type: cell-based; details: Homo sapiens, 22Rv1, 120 h, 5 days, CellTiter-Glo, read-out: 22RV1 Cell Growh GI50
In short: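 22RV1 cells were plated in RPMI1640 with FBS (20% in one version, 10% in the other) and dosed next day at various concentrations from DMSO stocks. After 5 days at 37 °C, viability was measured by CellTiter-Glo luminescence.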

Row | SMILES | IC50 [1] | IC50 [2] | IC50 [3] | GI50 (22RV1 cells)
1 | CC(C)n1c(C2CC(F)C2)nc2c(F)cc(-c3nc(N[C@@H]4C[C@H]5CO[C@H](O5)[C@H]4O)ncc3Cl)cc21 (stereo partly drawn) [Compound 243, (1S,3R,4S,5R)-3-((5-chloro-4-(4-fluoro-2-((1r,3R)-3-fluorocyclobutyl)-1-isopropyl-1H-benzo[d]imidazol-6-yl)pyrimidin-2-yl)amino)-6,8-dioxabicyclo[3.2.1]octan-4-ol] |  | 40 to 150 nM | > 1000 nM | 
2 | CC(C)c1cn(C)c(=O)c2c(F)cc(-c3nc(N[C@@H]4C[C@H]5CO[C@H](O5)[C@H]4O)ncc3Cl)cc12 [Compound 188, 6-(5-chloro-2-(((1S,3R,4S,5R)-4-hydroxy-6,8-dioxabicyclo[3.2.1]octan-3-yl)amino)pyrimidin-4-yl)-8-fluoro-4-isopropyl-2-methylisoquinolin-1(2H)-one] | 150 to 1000 nM |  |  | 120 to 450 nM
3 | CC(C)(O)c1nc2c(F)cc(-c3nc(N[C@@H]4C[C@H]5CO[C@H](O5)[C@H]4O)ncc3Cl)cc2n1C12CC(C1)C2 [Compound 181, (1S,3R,4S,5R)-3-((4-(1-(bicyclo[1.1.1]pentan-1-yl)-4-fluoro-2-(2-hydroxypropan-2-yl)-1H-benzo[d]imidazol-6-yl)-5-chloropyrimidin-2-yl)amino)-6,8-dioxabicyclo[3.2.1]octan-4-ol] | 150 to 1000 nM |  |  | 120 to 450 nM
4 | CC(C)n1c(C(C)(C)O)nc2c(F)cc(-c3nc(N[C@@H]4C[C@@H]5CO[C@@H](O5)[C@H]4O)ncc3Cl)cc21 [Compound 137, (1R,3R,4S,5S)-3-((5-chloro-4-(4-fluoro-2-(2-hydroxypropan-2-yl)-1-isopropyl-1H-benzo[d]imidazol-6-yl)pyrimidin-2-yl)amino)-6,8-dioxabicyclo[3.2.1]octan-4-ol] | 150 to 1000 nM |  |  | > 3000 nM

More lines, now with the values ahead:

Row | IC50 [1] | IC50 [2] | IC50 [3] | GI50 (22RV1 cells) | SMILES
5 | ≤ 40 nM | ≤ 40 nM | 150 to 1000 nM |  | CC(C)n1c(C2CCC2(F)F)nc2c(F)cc(-c3nc(N[C@@H]4C[C@H]5CO[C@H](O5)[C@H]4O)ncc3Cl)cc21 (stereo partly drawn) [Compound 239, (1S,3R,4S,5R)-3-((5-chloro-4-(2-(2,2-difluorocyclobutyl)-4-fluoro-1-isopropyl-1H-benzo[d]imidazol-6-yl)pyrimidin-2-yl)amino)-6,8-dioxabicyclo[3.2.1]octan-4-ol]
6 | 40 to 150 nM | 150 to 1000 nM | > 1000 nM |  | CC(C)n1c([C@H]2C[C@H]2C(=O)N(C)C)nc2c(F)cc(-c3nc(N[C@@H]4C[C@H]5CO[C@H](O5)[C@H]4O)ncc3Cl)cc21 [Compound 248, (1R,2S)-2-(6-(5-chloro-2-(((1S,3R,4S,5R)-4-hydroxy-6,8-dioxabicyclo[3.2.1]octan-3-yl)amino)pyrimidin-4-yl)-4-fluoro-1-isopropyl-1H-benzo[d]imidazol-2-yl)-N,N-dimethylcyclopropane-1-carboxamide]
7 | 40 to 150 nM |  |  | ≤ 120 nM | CC(C)(O)c1ccnc2c(F)cc(-c3nc(N[C@@H]4C[C@H]5CO[C@H](O5)[C@H]4O)ncc3Cl)cc12 [Compound 251, (1S,3R,4S,5R)-3-((5-chloro-4-(8-fluoro-4-(2-hydroxypropan-2-yl)quinolin-6-yl)pyrimidin-2-yl)amino)-6,8-dioxabicyclo[3.2.1]octan-4-ol]
8 | 40 to 150 nM |  |  | ≤ 120 nM | CC(C)n1c(C2(C(F)F)CC2)nc2c(F)cc(-c3nc(N[C@@H]4C[C@H]5CO[C@H](O5)[C@H]4O)ncc3Cl)cc21 [Compound 168, (1S,3R,4S,5R)-3-((5-chloro-4-(2-(1-(difluoromethyl)cyclopropyl)-4-fluoro-1-isopropyl-1H-benzo[d]imidazol-6-yl)pyrimidin-2-yl)amino)-6,8-dioxabicyclo[3.2.1]octan-4-ol]
